Consider seven molecules from patent US12478627B2, “Irsogladine for the treatment of eosinophilic gastrointestinal diseases” (EPITHELION SCIENCE BIOTECH, S.L., priority 2019, dated 2025).

Entries after “also recorded” stand apart in the source; their conditions may differ. Structures can show the parent of a compound that is named as a salt. A value given as a limit tells only on which side of the number the result lay.

In data set [1] the test system is EoE and EoGIDs. The note with it: cited from earlier work.
Data set [2] concerns Eosinophilic Esophagitis (EoE). Nature of the data set: Example 1: oral Irsogladine maleate in patient one with active eosinophilic esophagitis. Type of data set: in vivo, human. The note with it: 12 weeks. The text has this: […] […] […] A esophageal pH-metric study, performed without PPI treatment, was informed as normal. […] Without other type of examination, JCC was empirically treated in three occasions with Budesonide.
When seen, JCC was symptomatic, with difficulties to swallow food. Because of the symptoms and clinical history, Eosinophilic Esophagitis was suspected (Lucendo A J, et al. supra; Dellon E S, et al. supra; Lipowska A M, Kavitt R T. Current Diagnostic and Treatment Strategies for Eosinophilic Esophagitis. Gastroenterol Hepatol (N Y) 2017; 13(9):527-535). […] They had neither blood nor urine biological tests abnormalities. […] An Enteral Magnetic Resonance Imaging was informed as normal, without inflammatory features, increased wall thickness or strictures in the gastro-intestinal tract.
Simultaneously, biopsies were taken in all organs examined. […] Biopsies met the histological criteria of active eosinophil esophagitis (Lee S, de Boer W B, Naran A, et al. More than just counting eosinophils: proximal oesophageal involvement and subepithelial sclerosis are major diagnostic criteria for eosinophilic oesophagitis. J Clin Pathol. 2010; 63 (7):644-647; Collins M H, Capocelli K, Yang G Y. Eosinophilic Gastrointestinal Disorders Pathology. Front Med (Lausanne). 2018; 4:261). Gastric, duodenal and upper jejunal biopsies were reported as normal.
Consequently, JJC was diagnosed with active eosinophlic esophagitis. At this point in time, JJC was treated with oral Irsogladine maleate tablets, 2 mg twice a day during 12 weeks, exempting JJC from other therapies.
Also, at end of the Irsogladine treatment, endoscopic examination was repeated using Narrow Band Imaging (NBI). This technique is able to detect minimal changes in mucosa surface.

Data set [3] has as its system Eosinophilic Esophagitis (EoE). Nature of the data set: Example 2: oral Irsogladine maleate in patient three with eosinophilic esophagitis. The data set is classed as in vivo, human. The method, then: […] […] […] Pain tended to increase while eating.
Endoscopic procedures were performed. Colonoscopy of the entire colon and 20 cm of the distal ileum were informed as normal and staged biopsies were taken. […] Biopsies were taken in all upper gastrointestinal tract organs examined. Both, clinical symptoms and endoscopic findings are in accordance with the clinical and endoscopic criteria of EoE (Lucendo A J, Molina-Infante J, Arias Á, et al. Guidelines on eosinophilic esophagitis: evidence-based statements and recommendations for diagnosis and management in children and adults. United European Gastroenterol J. 2017; 5 (3):335-358; Dellon E S, Liacouras C A, Molina-Infante J, et al. Updated International Consensus Diagnostic Criteria for Eosinophilic Esophagitis: Proceedings of the AGREE Conference. Gastroenterology. 2018; 155 (4):1022-1033.e10.; Lipowska AM, Kavitt R T. Current Diagnostic and Treatment Strategies for Eosinophilic Esophagitis. Gastroenterol Hepatol (N Y) 2017; 13 (9):527-535; Hirano I, Moy N, Heckman M G, Thomas C S, Gonsalves N, Achem S R. Endoscopic assessment of the oesophageal features of eosinophilic oesophagitis: validation of a novel classification and grading system. Gut. 2013; 62 (4):489-495; Muir A B, Merves J, Liacouras C A. Role of Endoscopy in Diagnosis and Management of Pediatric Eosinophilic Esophagitis. Gastrointest Endosc Clin N Am. 2016; 26 (1):187-200).
These biopsies meet the diagnostic criteria of Eosinophilic Esophagitis (Lee S, de Boer W B, Naran A, et al. More than just counting eosinophils: proximal oesophageal involvement and subepithelial sclerosis are major diagnostic criteria for eosinophilic oesophagitis. J Clin Pathol. 2010; 63 (7):644-647; Collins M H, Capocelli K, Yang G Y. Eosinophilic Gastrointestinal Disorders Pathology. Front Med (Lausanne). 2018; 4: 261).
Upon confirming the diagnosis with Eosinophilic Esophagitis, JPV was treated with 4 mg of oral Irsogladine maleate twice a day for 8 weeks, without following any other treatment such as food elimination or pharmaceutical treatments (i.e. corticosteroids or monoclonal antibodies).
Due to the therapeutic efficacy shown by Irsogladine administration, it was decided to prolong JPV treatment for an additional 24 weeks (in total 32 weeks), at the same dose, with regular telephone and presential checking of symptoms and general health. […] Esophageal biopsies were taken showing no excess of eosinophil infiltrate (<10 cells/hpf) (FIGS. 12 and 13). There was neither peripheral blood eosinophilia (315 cells mm^3) nor anemia or any biological signs of inflammation.

Data set [4] relates to eosinophilic jejunitis. Nature of the data set: Example 3: Irsogladine maleate in patient two with mild eosinophilic jejunitis. Type of data set: in vivo, human.
Where [5] appears, read: patients with EoE or EoGIDs, literature reports.
The mark [6] stands for this setting: 2 mg twice a day, listed as Irsogladine Maleate.
Where [7] appears, read: 4 mg twice a day, 8 weeks, listed as Irsogladine Maleate.

Regarding Benralizumab: mAb against IL-5 receptor, in data set [1] (setting [5]), the clinical symptoms result is “did not correspond with clinical improvement” and the tissue eosinophil infiltrate result is reported as “significant reduction”.
On to `Nc1nc(N)nc(-c2cc(Cl)ccc2Cl)n1` [Irsogladine maleate], for which the “endoscopic examination of esophageal mucosa (Narrow Band Imaging)” value in data set [2] (setting [6]) was “Mucosa white plaques and circular trachealization disappeared”. The “histologic features of esophageal biopsy (eosinophil infiltration, intercellular spaces)” value in data set [2] (setting [6]) was “Eosinophil infiltration has clearly reduced, and intercellular spaces are back to normal”. Moreover, the “endoscopic aspect of esophageal mucosa” value in data set [3] (setting [7]) is “Esophageal linear furrows, white plaques and a tendency to trachealization have disappeared”; in data set [3] (32 weeks of treatment, listed as Irsogladine Maleate), “normal”. In data set [3] (setting [7]), the “histologic features of esophageal biopsy (eosinophil infiltration, microabscesses, intercellular spaces)” value is “absence of eosinophil infiltration”. Also, the “histological aspect of esophageal mucosa” value in data set [3] (32 weeks of treatment) is “strictly normal”. For the same molecule, the symptoms entry was “symptoms improved” in data set [4] (4 mg twice a day, after 2 weeks); “fully asymptomatic” in data set [4] (4 mg twice a day, after 4 weeks); “remained asymptomatic” in data set [4] (after 6 months maintenance treatment, 4 mg once a day). Moreover, in data set [4] (after 6 months treatment), the gastrointestinal upper endoscopy result is listed as “considered normal; also recorded: normal looking upper jejunal mucosa”. The “histology of upper jejunal mucosa biopsy” value in data set [4] (after six months of daily treatment) is “normal looking villi and no increase of eosinophilic infiltration”.
Turning to `CCN(CCCCOC(=O)c1ccc(OC)c(OC)c1)C(C)Cc1ccc(OC)cc1.Cl` (stereo not drawn) [Mebeverine Chlorhydrate], the “response of symptoms to earlier symptomatic treatment” value in data set [4] (Omeprazole 20 mg twice a day and Mebeverine Chlorhydrate 200 mg twice daily, long periods, before Irsogladine) is given as “no improvement”.
For Infliximab: Anti-TNFα mAb, in data set [1] (setting [5]), the clinical symptoms result was “have not shown efficacy” and the tissue eosinophil infiltrate entry is “have not shown efficacy”.
Turning to “Omalizumab: anti-IgE, targets a highly affinity receptor binding site of human IgE”, the “induction or maintenance of disease remission” value in data set [1] (eosinophilic esophagitis, literature reports) is reported as “failed to control or induce remission”. In data set [1] (setting [5]), the clinical symptoms result is reported as “variable effects” and the tissue eosinophil infiltrate result is given as “non-significant decrease”.
Regarding `Cn1cnc([N+](=O)[O-])c1Sc1ncnc2nc[nH]c12` [Azathioprine], in data set [1] (setting [5]), the side effects entry is reported as “not free of side effects”. For the same molecule, the efficacy entry in data set [1] (two reports, small number of cases of EoE and EoGE) is “has shown efficacy”.
As to `Nc1nc(N)nc(-c2cc(Cl)ccc2Cl)n1` [Irsogladine, 6-(2,5-Dichlorophenyl)-1,3,5-triazine-2,4-diamine], in data set [2] (2 mg twice a day), the disease remission entry is given as “therapeutically effective in inducing disease remission”; the “endoscopic examination of esophageal mucosa (Narrow Band Imaging)” value is “esophageal mucosal furrows, white plaques and trachealization lesions had disappeared”; the “histologic features of esophageal biopsy (eosinophil infiltration, intercellular spaces)” value is reported as “no dilation of intercellular spaces”; the side effects result is given as “No side effects”. The symptoms entry in data set [2] (2 mg twice a day) is given as “Symptoms had disappeared”. In addition, in data set [2] (oral tablets 2 mg twice a day, before treatment more than 30 cells per HPF, EoE threshold 15 counts per HPF), the “eosinophil counts in biopsies of the esophageal mucosa” value is recorded as “less than 5 per HPF”. In addition, the “eosinophil counts in esophageal biopsy” value in data set [3] (4 mg oral twice a day, 8 weeks, before treatment more than 50 per HPF) was “less than 15 per HPF”. Also, in data set [3] (4 mg twice a day, 8 weeks), the disease remission result is “therapeutically effective to induce remission”; the “endoscopic aspect of esophageal mucosa” value is recorded as “endoscopically normal”; the “histologic features of esophageal biopsy (eosinophil infiltration, microabscesses, intercellular spaces)” value is “negligible presence of eosinophil infiltration; also recorded: no eosinophilic microabscesses and absence of intercellular dilated spaces”; the side effects entry was “No side effects”. For the same molecule, the symptoms entry in data set [3] (4 mg twice a day, 8 weeks) is “completely disappeared”. Further, the “eosinophil infiltrate in esophageal biopsies” value in data set [3] (4 mg twice a day, additional 24 weeks (in total 32 weeks)) is listed as under 10 cells/hpf. In data set [3] (32 weeks of treatment), the “endoscopic aspect of esophageal mucosa” value is “normal looking mucosa” and the “side effects of long-term administration” value was “No side effects”.
